The values below are quoted from earlier work in US6486129B1, “Antithrombotic compounds” (Akzo Nobel N.V., priority 1998, dated 2002).

This series addresses thrombin (Homo sapiens, UniProt P00734). As to conditions: background description of prior art.

Take “Nα-(2-naphthylsulfonyl)-glycyl-4-amidinophenylaianinpiperidide [NAPAP]”: the thrombin specificity result is listed as “low thrombin specificity”.
